Reference: US6218163A, “Stable biocatalysts for ester hydrolysis” (Thermogen, Inc., priority 1996, dated 2001)
Each block holds one compound with its values, some of them ahead of it.

Tests used:
Format in all cases: biochemical
[1] = test system: Thermus sp. T351 esterase E100; assay: Inhibition by reaction components on the hydrolysis of p-nitrophenylproprionate by E100
Protocol: Measurement of E100 Enzyme Activity--Esterase activity is measured by monitoring the hydrolysis of p-nitrophenylproprionate (pNP), or in some cases MUB. Each substrate is dissolved in acetonitrile and added to the reaction mixture (100 μM final concentration) which contain 50 mM Tris HCl pH 8.5 adjusted for temperature dependent pH variation. Reactions are thermally equilibrated at 37° C. for 5 minutes prior to initiation of the reaction by addition of 10 μL of enzyme sample, while control reactions substituted equivalent amounts of BSA. The reaction is monitored spectrophotometrically at 405 nm ε=17 mM^-1 cm^-1 for pNP and 360 nm ε=7.9 mM^-1 cm^-1 for MUB.
The rates of enzyme catalyzed hydrolysis are corrected for the spontaneous hydrolysis of the substrate. Protein concentrations are determined by either the absorbance at 280 nm or by Lowery assay. Crude activity is determined by a colorimetric assay based on the hydrolysis of 5-bromo-4-chloro-3-indoyl esters suspended in a 0.7% agar matrix on microtiter plates. A 0.1 mg/ml solution of the indolyl derivative is dissolved in a minimal volume of acetonitrile and added to a warm solution of 0.7% agar containing 0.1M phosphate buffer pH 7.5. 10 μL of this solution is distributed to microtiter plates which, when cooled, could be used with as much as 100 μL of enzyme sample and incubated at temperatures from ambient to >65° C.

[2] = test system: Thermus sp. T351 esterase E101
[3] = test system: Thermus sp. T351 esterase E100; assay: Kinetic analysis of E100: concentration-dependent initial rates of nitrophenyl proprionate hydrolysis; conditions: p-NP as substrate, pH 8.5, 50 mM Tris-HCl, 37° C.
Protocol: FIG. 6. Kinetic analysis of E100.
Determination of Kinetic Characteristics--Kinetic characteristics are determined by measuring the concentration dependent initial rates of enzyme catalyzed hydrolysis of nitrophenyl proprionate. Reactions are run at pH 8.5 in 50 mM Tris-HCl buffer equilibrated to 37° C. and initiated by addition of enzyme. Rates are determined from the absorbance changes due to formation of product nitrophenol at 405 nm. Rates are corrected for the spontaneous hydrolysis of substrate during the course of the reaction. Concentration vs. rate data are analyzed by both double reciprocal plots and by HanesWolff plots to determine Km, Vmax and Vmax/Km.

Relative Rate ([1]; additive 10 mM, None = 100, substrate p-nitrophenylproprionate): 99%
Compound: OCCS [BME, β-mercaptoethanol]

Compound: O=C(O)CN(CCN(CC(=O)O)CC(=O)O)CC(=O)O [EDTA]
Relative Rate ([1]; pH 8.5, 1000 µM): 96

Compound: O=S(=O)(F)Cc1ccccc1 [PMSF]
Relative Rate ([1]; additive 0.1 mM, None = 100, substrate p-nitrophenylproprionate): 0%
Inhibition of E101 (in words) [2]: inhibited

Vmax [3]: 1.8×10^-5 Mmin^-1
Km ([3]; Lineweaver-Burke and Eadie-Hofstee analysis): 72 µM
Compound: CCC(=O)Oc1ccc([N+](=O)[O-])cc1 [p-NP, p-nitrophenylproprionate]

Compound: Cc1ccc(S(=O)(=O)F)cc1 [tosyl fluoride]
Inhibition of E100 (in words) [1]: effectively inhibited
